The record followed here is patent publication US9744186B2 (priority 2012, dated 2017).

What is called IC50 is the midpoint of a concentration-inhibition curve. Usually CC50 stands for the concentration at which the toxic effect on the cells reaches its halfway point. A low value points to harm at low concentration.

For one data set, the system named is HCV luciferase replicon. The data set is described as follows: HCV luciferase replicon IC50 assay in Huh7 cells. Particulars: for IC50: Hepatitis C virus; for Therapeutic Index (TC50/IC50): TC50 in Huh7 / IC50 HCV replicon, 48 h. The protocol: Plating Cells: The Luciferase replicon cell line was passaged when it was at about 70% confluency. The cells were counted by using a hemocytometer and diluted to 1×10^5 cells per mL in DMEM+10% FBS+[…] G415. The cells were plated as follows: 100 μL of the cells (10,000 cells) per well in a white-walled 96-well plate. The cells were allowed to attach for 24 hours at 37° C.
Treating the cells: Media (DMEM+2% FBS) was pre-warmed to 37° C. […] The 96-well plate was removed from the 37° C. incubator, and the media replaced on the plate with the serial dilutions of the test drug. The plate was then returned to 37° C. for 48 h.
Luciferase Assay: The Bright-Glo reagent (Promega Corporation, Madison, Wis.) was removed from the −80° C. freezer and allowed to thaw it at 4° C. in the dark. The amount of reagent necessary for the experiment (3.65 mL) was removed, and the remaining reagent was returned to −80° C. The Glo Lysis Buffer and the Bright Glow reagent were allowed to warm to room temperature for 30 min in the dark. The 96 well plate was removed from the incubator and the cells to allowed cool to room temperature for 30 min. The media was removed from the cells, and each well was gently washed in 100 μL of phosphate buffered saline (PBS). The PBS was removed and then 50 μL of the Glo Lysis Buffer was added to each well, followed by gently rocking the plate for 15 min at room temperature in the dark to ensure complete cell lysis. To each well of the 96-well plate was added 50 μL of the Bright Glo reagent and it was mixed well with the lysate. The plate was inserted into a GloMax 96 plate reader and allowed to sit for 5 min in the dark for the luciferase reaction to reach a steady state. The luminescence on the plate was read by using the pre-installed “Bright Glo” Promega program (Synergy Software) and the data were collected and saved. The data were fit to a 4 parameter logistic curve using Kaleidagraph using the following equation: 100/(1+(x/m3)^m4).
The data in Table 1 were determined for cells exposed to drug for 48 h. The IC50 is the concentration of each compound necessary to inhibit the replication of the HCV luciferase replicon to 50%.
That is, the cells were exposed to drug for 2 h at 37° C., followed by 46 h at 37° C. or incubated in the presence of drug for 48 h at 37° C.
On the technique in general: Replicon systems follow genome replication, usually without infectious particles.

Data set [1] can be described thus: TC50 MTS assay with human cancer cell lines: Huh7. It is filed as cell-based. Particulars: human, Huh7 cells; 96 h drug treatment. The protocol:
(§1) Plating Cells: The Huh7, HEPG2, HEK293, MCF-7, PK9, RPK9, or BxPC3 cells were passaged when they were about 70% confluent. The cells were counted using a hemocytometer, and then diluted cells to 0.5×10^5 cells per mL in DMEM+10% FBS. 100 µL of the cells (5,000 cells) were plated per well in a clear 96-well plate. The cells were allowed to attach for 24 hours at 37° C.
(§2) Treating the cells: Pre-warm the DMEM media without phenol red+2% FBS media to 37° C. […] This will bring the final DMSO concentration to 0.5%. Use these 0.5 mM dilutions to further serially the drugs in DMEM without phenol red+2% FBS+0.5% DMSO. This will keep the concentration of DMSO in each condition identical. Remove the 96-well plate from the 37° C. incubator. Replace the media on the plate with the dilutions of the drugs. Stagger these treatments by 1 h and write the treatment time on each set of plates. Return to 37° C. for 48 h or 96 h as indicated.
(§3) MTS Assay: The reagents from CellTiter 96 kit (Promega Corporation, Madison, Wis.) were thawed at room temperature in the dark for 1 h. The 96-well plate was removed from the 37° C. incubator at 48 h after drug treatment. 20 μL of the combined MTS/PMS reagent to each well of the plate, mixed, and the plate returned to 37° C. The absorbance of each well at 490 nm and 650 nm was determined using the Flexstation 3 microplate reader in endpoint mode every hour for 3 h. The solutions in the wells were mixed prior to each reading. Fit Data to the Emax model: y=(Emax*x)/(TC50+x), where Emax is the maximum inhibition and TC50 is the inhibitory dose 50%. Alternatively, fit the data to the Emax sigmoidal model: y=(Emax*x^slope)/(TC50^slope+x^slope), where slope is the Hill Slope.
Each TC50 was the average value of three measurements as described herein. […] The RPK9 cells are deficient in deoxycytidine kinase (“dCK”) activity, an enzyme required for the initial phosphorylation of dFdC to dFdCMP (see FIG. 2).
A general note: Tetrazolium assays rely on reduction of a dye to a coloured formazan, in cell work by metabolically active cells.

Data set [2] is described as follows: TC50 MTS assay: PK9 cells. Type of data set: cell-based. Particulars: human, 48 h drug treatment. The protocol: as §1, §2
MTS Assay: The reagents from CellTiter 96 kit (Promega Corporation, Madison, Wis.) were thawed at room temperature in the dark for 1 h. The 96-well plate was removed from the 37° C. incubator at 48 h after drug treatment. […] The absorbance of each well at 490 nm and 650 nm was determined using the Flexstation 3 microplate reader in endpoint mode every hour for 3 h. The solutions in the wells were mixed prior to each reading. […]

The test system of the next data set is Huh7 cells. As to the kind of experiment: in vitro. Particulars: control Huh7 cells; 48 h drug exposure; MTS. The protocol: Plating Cells: The Huh7 cell line was passaged when it was at about 70% confluency. The cells were counted using a hemocytometer, followed by dilution of the cells to 0.5×10^5 cells per mL in DMEM+10% FBS. The cells were plated at 100 μL (5,000 cells) per well in a clear 96-well plate. The cells were allowed to attach for 24 hours at 37° C.
Treating the cells: The media (DMEM media without phenol red+2% FBS media) was pre-warmed to 37° C. […] This provided a final DMSO concentration of 0.5%. The 100 mM stock of 3,5-dichlorobenzoic acid was diluted in DMEM without phenol red+2% FBS to a concentration of 0.5 mM. The working 0.5 mM diluted test drugs were serially diluted in DMEM without phenol red+2% FBS+0.5% DMSO in order to maintain a constant concentration of DMSO in each condition. The 96-well plate was removed from the 37° C. incubator, and the media on the plate was replaced with media containing diluted test drug.
as §3, with “The data were fit” for “Fit Data”, “Alternatively,” for “Alternatively, fit”, “data can be fit” for “data”

Setting [3] is: Huh-7, 48 h, Huh7 cells containing HCV luciferase replicon, cells exposed to drug for 48 h.

Consider `COc1cc(C(=O)Nc2ccn([C@@H]3O[C@H](CO)[C@@H](O)C3(F)F)c(=O)n2)cc(OC)c1OC` [GTB, N^4-(3,4,5-Trimethoxybenzoyl)gemcitabine], for which the IC50 with HCV luciferase replicon (setting [3]) worked out at 49.3 ± 8.8 nM; with HCV luciferase replicon (Huh-7, 48 h, cells incubated with drug continuously for 48 h (Table 5)) it was 49.3 ± 8.8 nM; with HCV luciferase replicon (Huh-7, cells incubated with drug for 2 h, followed by 46 h without drug) it was 2770 ± 265 nM. The “Therapeutic Index (TC50/IC50)” value with HCV luciferase replicon is reported as 10040. The CC50 at 96 h in data set [1] came to 5050 ± 1220 nM. Further, in data set [2], the CC50 at 48 h worked out at 1.69 ± 0.1 µM.

Take `O=C(Nc1ccn([C@@H]2O[C@H](CO)[C@@H](O)C2(F)F)c(=O)n1)c1cc(Cl)cc(Cl)c1` [GCB, N^4-(3,5-Dichlorobenzoyl)gemcitabine]: the concentration for half-maximal inhibition (IC50) in the data set with HCV luciferase replicon (setting [3]) worked out at 25.5 ± 2.2 nM. Also, in the data set with HCV luciferase replicon, the “Therapeutic Index (TC50/IC50)” value was determined as 4310. In addition, the CC50 at 96 h in data set [1] is 4170 ± 1060 nM. Further, in the data set on Huh7 cells, the “TC50” value is more than 100000 nM.
